Reference: patent US20140341922A1, “Method for Overcoming Tolerance to Targeted Anti-Cancer Agent” (SUN R&DB Foundation, priority 2011, published 2014)
Entries after “also recorded” stand apart in the source; their conditions may differ.

Key:
IGF-1R = molecular target: T1, IGF-1R (Homo sapiens, UniProt P08069); assay: IGF-1-induced IGF-1R phosphorylation, Western blot; type: cell-based; conditions: LN686 cells, cixutumumab 6 h, then 100 ng/ml IGF-1 for 30 min
T1 construct: endogenous in cells; host or cells: LN686 cells
T1 sequence (P08069 31-1367): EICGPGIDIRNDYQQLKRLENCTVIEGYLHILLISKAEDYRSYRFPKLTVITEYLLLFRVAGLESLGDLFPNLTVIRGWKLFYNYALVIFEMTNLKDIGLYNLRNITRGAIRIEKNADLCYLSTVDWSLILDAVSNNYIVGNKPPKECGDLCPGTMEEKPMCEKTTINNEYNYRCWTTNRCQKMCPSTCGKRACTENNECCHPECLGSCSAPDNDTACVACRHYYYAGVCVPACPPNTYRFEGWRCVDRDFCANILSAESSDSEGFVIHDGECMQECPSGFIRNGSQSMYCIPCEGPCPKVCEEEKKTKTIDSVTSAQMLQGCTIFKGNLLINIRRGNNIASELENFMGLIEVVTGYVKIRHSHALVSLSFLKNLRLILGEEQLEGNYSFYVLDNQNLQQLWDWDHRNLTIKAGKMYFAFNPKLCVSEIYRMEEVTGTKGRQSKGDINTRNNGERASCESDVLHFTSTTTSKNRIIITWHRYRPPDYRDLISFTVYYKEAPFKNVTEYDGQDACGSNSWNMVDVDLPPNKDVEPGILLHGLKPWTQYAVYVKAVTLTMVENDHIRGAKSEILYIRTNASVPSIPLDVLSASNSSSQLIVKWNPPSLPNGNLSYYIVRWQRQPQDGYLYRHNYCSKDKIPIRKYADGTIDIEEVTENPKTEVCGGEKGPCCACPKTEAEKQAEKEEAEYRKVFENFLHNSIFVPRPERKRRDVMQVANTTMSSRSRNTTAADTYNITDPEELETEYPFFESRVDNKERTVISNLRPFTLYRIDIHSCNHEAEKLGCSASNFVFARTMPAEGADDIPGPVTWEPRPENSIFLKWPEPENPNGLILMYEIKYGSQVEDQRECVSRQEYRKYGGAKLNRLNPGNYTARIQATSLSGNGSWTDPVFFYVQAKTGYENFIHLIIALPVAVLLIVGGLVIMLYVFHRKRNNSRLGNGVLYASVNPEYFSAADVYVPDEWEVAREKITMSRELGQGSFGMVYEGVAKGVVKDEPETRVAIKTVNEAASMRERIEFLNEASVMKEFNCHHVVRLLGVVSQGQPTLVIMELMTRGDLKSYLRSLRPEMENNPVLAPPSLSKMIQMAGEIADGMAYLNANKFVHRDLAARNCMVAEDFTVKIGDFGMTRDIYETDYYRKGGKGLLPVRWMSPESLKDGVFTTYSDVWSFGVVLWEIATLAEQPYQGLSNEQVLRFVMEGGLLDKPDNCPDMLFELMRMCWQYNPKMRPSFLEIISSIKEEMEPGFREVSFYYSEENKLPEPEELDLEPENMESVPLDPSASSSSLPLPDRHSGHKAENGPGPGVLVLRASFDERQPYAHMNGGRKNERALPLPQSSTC
Protocol: Preparation of total cell lysates, Western blot analysis, and immunoprecipitation were performed according to methods described in our previous report (Morgillo et al., 2006).
LN686 cells were treated with increasing concentrations of cixutumumab for 6 h, and then stimulated with 100 ng/ml IGF-1 for 30 min.

[1] = tested on: 13 HNSCC and 6 NSCLC cells; assay: MTT cell viability in conventional 2D culture (TCPs); type: cell-based, human; conditions: 25 μg/ml, up to 7 days, MTT assay
Protocol: A panel of 13 HNSCC and 6 NSCLC cells grown in 2D culture conditions using TCPs were treated with 25 μg/ml cixutumumab, and the effect of cixutumumab on growth of cancer cells tested was analyzed by the MTT assay.
The effect of cixutumumab on growth of 13 HNSCC and 6 NSCLC cells was evaluated by the MTT assay, and the results are shown in FIG. 2.
LN686, UMSCC38, and A549m cells were treated with cixutumumab diluted in 1% FBS-containing medium for 3 and 5 days. Cell viability was evaluated by the MTT assay.

[2] = tested on: LN686, FADU, and OSC19 cells; assay: Cell counting in 3D-mimic 2D culture (PCP or UAP); type: cell-based, human
Protocol: (§1) Cells were cultured in 96-well poly(poly-2-hydroxyethyl methacrylate [HEMA])-coated plates (PCPs) or ultra-low attached plates (UAPs). Control IgG1 (25 μg/ml), cixutumumab (25 μg/ml), PP2 (10 μM), and an integrin β3 neutralizing antibody B3A (10 μg/ml) were diluted in culture media containing 10% FBS or IGF-1 and treated alone or in combination. To examine the effect on cancer cell proliferation, a 3-(4,5-dimethylthiazol-2-yl)-2,5-diphenyltetrazolium bromide (MTT) or 3-(4,5-dimethylthiazol-2-yl)-5-(3-carboxymethoxyphenyl)-2-(4-sulfophenyl)-2H-tetrazolium (MTS) assay was performed, and to evaluate the effect on anchorage-independent colony formation, a soft agar colony formation assay was performed according to a method in our previous report (Morgillo et al., 2006).
(§2) The PCPs were prepared according to a previously reported method (Fukazawa et al., 1995). In brief, tissue culture plates were collated twice with poly-(HEMA) (10 mg/ml in 95% ethanol) at 37° C. and then washed with phosphate-buffered saline (PBS) several times.
Since cell growth rates could be different under each set of culture conditions, the present inventor counted the cells at distinct culture periods and depicted the results in FIG. 6. The values were represented as mean±standard deviation (SD), and a statistical significance was evaluated using two-sided Student t test (*P<0.05; **P<0.01).

[3] = tested on: 13 HNSCC and 6 NSCLC cells; assay: MTS viability assay in PCPs and UAPs; type: cell-based, human; conditions: PCPs, 25 μg/ml, 7 days
Protocol: as §1, §2
HNSCC and NSCLC cells grown in PCPs and UAPs were treated with cixutumumab (25 μg/ml) for 7 days. Each bar represents mean±SD of 6 wells of a single representative experiment.

[4] = tested on: LN686, H226B, UMSCC38 and A549m xenograft tumors; assay: Xenograft tumors of drug-resistant and -sensitive cells in nude mice; type: in vivo; conditions: intraperitoneal, 25 mg/kg twice a week
Protocol: LN686, UMSCC38, H226B, or A549m cells (1×10^6 cells/mouse in 100 μl of PBS) were subcutaneously injected into nude mice at a single dorsal flank site (6-9 mice per group). For HNSCC patient-derived tumor xenografts, primary human tumor specimens were collected from an untreated patient who underwent lobectomies of squamous carcinoma of the oral cavity. The tumors were cut into small pieces with a size of 2-mm^3 and subcutaneously implanted into the nude mice (one piece per mouse). At 0 day (the time point when tumor size reached to 80 to 100 mm^3) mice were treated with cixutumumab (10 mg/kg, i.p., once or twice a week), Ad-EV (3×10^11 pfu, intratumoral injection, once a week), Ad-CSK (3×10^11 pfu, intratumoral injection, once a week), siCon, siintegrin β3 ([…], i.p., once a week), dasatinib (20 mg/kg, oral gavage, daily), cixutumumab and Ad-CSK, or cixutumumab and dasatinib.
Tumor xenografts were treated with vehicle or cituxumumab (intraperitoneal, 25 mg/kg) twice a week. Data are presented as mean tumor volume ±SD for indicated time or mean tumor weight at the date of euthanasia ±SD (*P<0.05, **P<0.01, ***P<0.001). […] Thus, antitumor activity of cixutumumab was consistent in cells grown in 3D (or 3D-mimicking) conditions in vitro and in those grown in vivo.

integrin β3 = assay: Immunoprecipitation of integrin β3 / β1 with Src, FAK, p85; type: cell-based, human
Protocol: Total cell lysates were immunoprecipitated with antibodies against integrin β3, integrin β1, or IgG. The precipitates with protein A agarose were resolved by sodium dodecyl sulfate-polyacrylamide gel electrophoresis (SDS-PAGE) and transferred to a polyvinylidene difluoride (PVDF) membrane. Western blot analysis was performed using specific Abs described as follows, and antigen-antibody complexes were visualized using enhanced chemiluminescence plus kits (Amersham Biosciences, Piscataway, N.J.).
The LN686 cells grown in PCP were treated with cixutumumab (25 μg/ml) for indicated times prior to stimulation with 10% FBS (FIGS. 14 and 15) or IGF-1 (100 ng/ml) (FIGS. 16 and 17) in the presence or absence of anti-human IGF-1 neutralizing monoclonal antibody (αIGF-1) (FIGS. 15 and 16) for indicated times (FIG. 16) or for 30 min (FIGS. 14, 15, and 17). Immunoprecipitation with whole proteins or integrin β3 antibodies was performed on the presented proteins, and expression of the proteins was analyzed by western blot analysis.

For “cixutumumab: humanized mAb targeting IGF-1R, provided by ImClone Systems”, the “IGF-1-induced IGF-1R phosphorylation” value (IGF-1R) was “markedly inhibited; also recorded: concentration-dependent inhibitory effect”, the “viability of cells grown in 2D culture conditions” value [1] was “did not inhibit” and the “growth rates vs control cells” value ([2]; LN686 and FADU cells) was “no difference”. The “growth rates vs control cells” value ([2]; OSC19 cells) was “significantly slower growth rates”, the inhibition in viability ([3]; 7 HNSCC and 2 NSCLC cell lines (red, resistant)) was “less than 20%” and the inhibition in viability ([3]; remaining 2 HNSCC and 2 NSCLC cell lines (black, sensitive)) was “more than 60%”. For the same substance, the “growth and weight of xenograft tumors” value ([4]; LN686 and H226B xenografts) was “no significant effects”, the “growth and weight of xenograft tumors” value ([4]; UMSCC38 and A549 xenografts) was “significantly decreased” and the “FBS-induced associations between integrin β3 and Src or p85 and phosphorylation of FAK and Src” value (integrin β3; LN686 in PCP, 25 μg/ml, time-dependent) was “enhanced”. For the same substance, the “associations between integrin β1 and p-Src (Y416) or p-FAK (Y861)” value (integrin β3; after IGF-1 stimulation, cixutumumab pretreatment) was “did not affect”.
